Results: US20130216614A1, “IMMUNOGENIC COMPOSITIONS AND METHODS FOR TREATING NUEROLOGIC DISORDERS” (Glaxosmithkline Biologicals S.A., priority 2010, published 2013)

Legend:
[1] = test system: APPSwe/PS1 mice; test: Aβ plaque loading in brain, stereological analysis; assay type: in vivo; settings: 50 μg/mouse i.p. weekly for 12 weeks
Method: Five groups of APPSwe/PS1 mice have received one a week for a period of 12 weeks the following treatment: • Gr1: APPSwe/PS1+NaCl 0.9% n(=20), i.p. injections • Gr4: APPSwe/PS1+CRX527 (20 μg/mouse, 130 μl, n=10), i.p. injections • Gr5: APPSwe/PS1+CRX601 (20 μg/mouse, 130 μl, n=10), i.p. injections • Gr6: APPSwe/PS1+3D MPL (50 μg/mouse, 130 μl, n=10), i.p. injections • Gr8 APPSwe/PS1+AS15 • Gr9: APPSwe/PS1+AS01B ( 1/10th of human dose μg/kg, 50 μl, n=10), i.m. injections
Mice were anesthetized under isofluorane and blood was drawn via cardiac puncture before head decapitation. Brains were rapidly removed from the skulls and placed in cold phosphate buffered saline (PBS) solution. Then hemibrains were separated and olfactory bulbs and cerebellum were removed. One hemibrain was rapidly frozen in liquid nitrogen and stored at −80° C. for protein analysis. The other one was postfixed for 2-4 days in 4% paraformaldehyde (PFA), pH 9.5 at 4° C., and then placed in a PFA solution containing 10% sucrose overnight at 4° C. […]
An observer who was blind to the treatment status of the material did all quantitative histological analyses. […] Briefly, the contours of the prefrontal cortex, the hippocampus and the cortex areas were traced as virtual overlay on the […] images and areas were calculated. The area occupied by all Aβ-labeled plaques was determined. […]

[2] = Innate cytokine/chemokine profile in sera after injection; assay type: in vivo, C57BL/6 mice
Method: FIG. 17: Innate cytokines profile from sera after either LPS or 3DMPL injected mice using the intraperitoneal route at 2 hr or 6 hr post injection time point. Results are shown in relative units (RU or pg/ml) of various cytokines/chemokines in sera for PBS and LPS or 3DMPL injected mice after 2 hours or 6 hours. N=5 mice per group. […] Tukey post-hoc test used for the comparison following ANOVA-1 analysis.
FIG. 18: Innate cytokines profile from sera after either AS01B, AS03 or AS04D injected mice using the intramuscular at 2 hr or 6 hr post injection time point. Results are shown in relative units (RU or pg/ml) of various cytokines/chemokines in sera for PBS and LPS or 3D MPL injected mice after 2 hours or 6 hours. N=5 mice per group. The bars represent mean±SEM.
We measured several cytokines and chemokines in the sera of C57BL/6 mice 2 and 6 h following a single intraperitoneal injection of either MPL or LPS.
Innate cytokines profile from sera after either AS01B, AS03 or AS04D was injected into mice using the intramuscular route, samples taken at 2 hr or 6 hr post injection time point. Results are shown in relative units (RU or pg/ml) of various cytokines/chemokines in sera for PBS and LPS or MPL injected mice after 2 hours or 6 hours. N=5 mice per group. The bars represent mean±SEM.

Which “Amyloid beta plaque number” value [1] does the source give for “3-O-desacyl-4′-monophosphoryl lipid A [3D MPL]” here?
The value was “statistically significant reduction”.

And the “Aβ total plaque loading by immunofluorescence vs PBS control group” value [1]?
Its value is “significant difference”.

What about the “CCL2 level compared to the LPS group” value ([2]; 2 h after i.p. injection) of the same substance?
Its value is “higher”.

What about the “CXCL-1 level compared to the LPS group” value ([2]; 2 h after i.p. injection) of the same substance?
The value was “similar”.

And the “levels of TNF-α and IL-6 in sera” value ([2]; 2 h post i.p. injection)?
Its value is “modest increase”.

And the “levels of TNF-α and IL-6 in sera” value ([2]; 6 h post i.p. injection)?
Its value is “essentially abolished”.

What about the “serum cytokine and chemokine levels compared with LPS-treated animals” value ([2]; single i.p. injection, 2 and 6 h) of the same substance?
Its value is “substantially lower”.
